This passage reports AC50 results from patent US20260138961A1, “MODULATORS OF MITOCHONDRIAL DNA REPLICATION” (Pretzel Therapeutics, Inc., priority 2022, published 2026).

A value given as a limit tells only on which side of the number the result lay.

Usually AC50 stands for the concentration giving half of the maximal activity seen. High values mean weaker potency, low ones greater potency.

This experiment concerns the target T1, POLγA:R309C (Homo sapiens, UniProt P54098, R309C).
T1 sequence (P54098 1-1239 R309C): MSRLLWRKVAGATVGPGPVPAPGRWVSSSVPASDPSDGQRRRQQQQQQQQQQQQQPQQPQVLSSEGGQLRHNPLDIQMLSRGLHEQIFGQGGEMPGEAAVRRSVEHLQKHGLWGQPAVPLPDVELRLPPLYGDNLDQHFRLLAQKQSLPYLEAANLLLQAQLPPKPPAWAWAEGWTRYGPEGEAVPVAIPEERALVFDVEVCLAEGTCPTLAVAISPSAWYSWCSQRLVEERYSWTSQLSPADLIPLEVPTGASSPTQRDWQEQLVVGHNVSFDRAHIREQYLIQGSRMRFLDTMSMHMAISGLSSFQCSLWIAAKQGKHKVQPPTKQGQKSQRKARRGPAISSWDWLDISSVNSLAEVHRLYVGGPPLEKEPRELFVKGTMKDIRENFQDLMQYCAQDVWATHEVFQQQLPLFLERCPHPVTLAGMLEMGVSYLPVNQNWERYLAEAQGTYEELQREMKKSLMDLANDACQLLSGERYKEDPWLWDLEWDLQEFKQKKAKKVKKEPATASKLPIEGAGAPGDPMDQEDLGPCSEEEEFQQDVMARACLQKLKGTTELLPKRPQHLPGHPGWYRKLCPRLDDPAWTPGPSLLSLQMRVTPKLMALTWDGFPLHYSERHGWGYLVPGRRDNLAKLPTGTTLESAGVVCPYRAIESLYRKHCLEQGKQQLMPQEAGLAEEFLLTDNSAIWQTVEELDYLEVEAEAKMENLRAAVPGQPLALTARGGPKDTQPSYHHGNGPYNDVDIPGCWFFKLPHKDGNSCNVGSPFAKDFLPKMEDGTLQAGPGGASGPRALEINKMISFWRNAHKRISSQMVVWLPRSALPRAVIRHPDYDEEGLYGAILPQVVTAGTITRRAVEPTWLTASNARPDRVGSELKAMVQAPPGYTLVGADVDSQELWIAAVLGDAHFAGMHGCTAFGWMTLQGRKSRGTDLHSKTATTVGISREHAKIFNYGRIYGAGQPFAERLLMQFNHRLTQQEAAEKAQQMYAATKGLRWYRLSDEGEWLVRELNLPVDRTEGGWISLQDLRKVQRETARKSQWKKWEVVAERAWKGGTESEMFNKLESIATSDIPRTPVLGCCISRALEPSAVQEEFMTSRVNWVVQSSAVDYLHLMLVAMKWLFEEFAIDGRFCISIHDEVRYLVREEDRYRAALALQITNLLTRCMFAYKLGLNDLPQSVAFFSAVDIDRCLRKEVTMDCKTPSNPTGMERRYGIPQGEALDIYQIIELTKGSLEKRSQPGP
T1 sequence (Q9UHN1 1-485 partner): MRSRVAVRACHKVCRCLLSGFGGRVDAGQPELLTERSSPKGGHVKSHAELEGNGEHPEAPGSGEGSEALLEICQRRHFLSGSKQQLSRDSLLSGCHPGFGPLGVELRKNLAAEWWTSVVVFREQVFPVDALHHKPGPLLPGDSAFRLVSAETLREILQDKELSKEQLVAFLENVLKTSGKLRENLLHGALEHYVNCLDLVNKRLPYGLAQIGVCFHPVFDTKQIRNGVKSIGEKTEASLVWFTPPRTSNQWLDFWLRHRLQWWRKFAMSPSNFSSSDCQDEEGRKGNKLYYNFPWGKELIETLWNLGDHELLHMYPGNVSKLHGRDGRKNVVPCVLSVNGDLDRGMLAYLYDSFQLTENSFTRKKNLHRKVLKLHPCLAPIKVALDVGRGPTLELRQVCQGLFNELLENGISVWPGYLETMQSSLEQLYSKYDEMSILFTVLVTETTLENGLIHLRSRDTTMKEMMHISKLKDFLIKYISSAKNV
Description: DNA polymerization assay, POLγA:R309C mutant. In kind it is biochemical. The settings on record: stimulation of polymerase activity, primed M13mp18 ssDNA, 37° C. 2 hours. As to the method:
DNA Polymerization Assay to Monitor Effects on Human Wildtype POLγ and Four Disease-Causing Mutant Variants of Human POLγ.
The ability of small molecules to stimulate the polymerase activity of POLγ was analyzed in a quantitative fluorescence SYBR Green I assay with fluorescence intensity (FI) readout.
In the presence of dNTPs, wild type human POLγ and mutant derivatives thereof were incubated with single-stranded, circular M13mp18 ssDNA hybridized to a short DNA oligonucleotide that functions as a primer for initiation of DNA synthesis. POLγ and mutant derivatives thereof will extend the primer and use the M13mp18 molecule as a template to synthesize long stretches of double-stranded DNA. SYBR Green I, which is a double-stranded DNA-binding dye, was used to quantify formation of double-stranded DNA in the reaction. When bound to double-stranded DNA, SYBR Green I fluorescence increases by up to 100-fold.
The assay was performed in the 384-well plate format. Upon addition of compounds, changes in double-stranded DNA synthesis activity can be monitored by following effects on fluorescent intensity.
The reactions also contained the accessory POLγB subunit, and the human mitochondrial single-stranded DNA binding protein (mtSSB).
The DNA template mixture used in the assay contained 0.5 nM primed M13 mp18 ssDNA, 400 nM mtSSB, 0.1 mM Tris-HCl (pH 8.0), 0.1 mM dNTP, 10 mM MgCl2, 0.1 mg/mL BSA, 1 mM TCEP solution, and 0.02% Triton X-100. The DNA template mixture for the wild type protein contained either 100 μM dNTP, 1 μM dNTP, or 0.1 μM dNTP, designated in Table 2 as 100 μM, 1 μM, and 0.1 μM, respectfully.
Microplates with compounds (0.1 μL in each well) to be tested in the assay were prepared from 10 mM compound stocks in 100% DMSO, and equal amounts of DMSO without any compound were added to positive and negative control wells.
The protein mixture was dispensed (5 μL into each well) into compound plates and incubated at 37° C. for 15 minutes. After incubation, 5 μL of the DNA template mixture was dispensed into each well. The plates were then incubated at 37° C. for 2 hours.
During incubation, a combined stop buffer and detection reagent solution was prepared. The buffer contained 25 mM EDTA (pH 8.0), 0.02% Triton X-100, and SYBR Green I [Invitrogen] diluted 10,000× (for fluorescent readout). EDTA will stop the enzymatic reaction by chelating magnesium ions.
`Cc1ccc(C)c(S(=O)(=O)Nc2cccc(C(=O)N3CCCCC3C#N)c2)c1` (centres unmarked) [Example 2, N-(3-(2-cyanopiperidine-1-carbonyl)phenyl)-2,5-dimethylbenzenesulfonamide] displayed an AC50 of 8 µM.

Take `Cc1cc(S(=O)(=O)Nc2cccc(C(=O)N3CCCC[C@H]3C)c2)c(C)cc1Cl` [Example 9, (R)-4-chloro-2,5-dimethyl-N-(3-(2-methylpiperidine-1-carbonyl)phenyl)benzenesulfonamide]: the activity was half-maximal at 2 µM (AC50). Against the preceding molecule, the AC50 is about 4-fold lower.

`Cc1cc(S(=O)(=O)Nc2ccc3c(c2)CC(=O)N3)c(C)cc1Cl` [Example 185, 4-chloro-2,5-dimethyl-N-(2-oxoindolin-5-yl)benzenesulfonamide] gave an AC50 of 8 µM.

The molecule `Cc1ccc(C)c(S(=O)(=O)Nc2cccc(C(=O)N3CCOCC3C#N)c2)c1` (centres unmarked) [Example 7, N-(3-(3-cyanomorpholine-4-carbonyl)phenyl)-2,5-dimethylbenzenesulfonamide] gave an AC50 of 10 µM. The AC50 values of the last two molecules are within 1.5-fold of each other.

`Cc1ccc(C)c(S(=O)(=O)Nc2cccc(C(=O)N3CCCC[C@H]3C)c2)c1` [Example 5, (R)-2,5-dimethyl-N-(3-(2-methylpiperidine-1-carbonyl)phenyl)benzenesulfonamide] had an AC50 of 11 µM.

On to `Cc1cc(S(=O)(=O)Nc2cc(F)cc(C(=O)N3CCC[C@H]3C)c2)c(C)cc1Cl` [Example 13, (R)-4-chloro-N-(3-fluoro-5-(2-methylpyrrolidine-1-carbonyl)phenyl)-2,5-dimethylbenzenesulfonamide], for which the AC50 turned out to be 3 µM.

On to `Cc1cc(S(=O)(=O)Nc2cccc(-c3nccs3)c2)c(C)cc1Cl` [Example 16, 4-chloro-2,5-dimethyl-N-(3-(thiazol-2-yl)phenyl)benzenesulfonamide], for which the AC50 was 2 µM.

For the molecule `Cc1cc(S(=O)(=O)Nc2cccc(-c3ncco3)c2)c(C)cc1Cl` [Example 17, 4-chloro-2,5-dimethyl-N-(3-(oxazol-2-yl)phenyl)benzenesulfonamide], the AC50 came out at 2 µM.

The molecule `Cc1cnc(-c2ccc(C)c(NS(=O)(=O)c3cc(C)c(Cl)cc3C)c2)s1` [Example 98, 4-chloro-2,5-dimethyl-N-(2-methyl-5-(5-methylthiazol-2-yl)phenyl)benzenesulfonamide] registered an AC50 of over 100 µM.

`Cc1cc(S(=O)(=O)Nc2cccc(-c3ccn(C)n3)c2)c(C)cc1Cl` [Example 18, 4-chloro-2,5-dimethyl-N-(3-(1-methyl-1H-pyrazol-3-yl)phenyl)benzenesulfonamide] registered an AC50 of 5 µM. That is a single-digit micromolar value.

Take `Cc1cc(S(=O)(=O)Nc2cccc(C(=O)N(C)C(C)CO)c2)c(C)cc1Cl` (single isomer, unassigned) [Example 14, 3-((4-chloro-2,5-dimethylphenyl)sulfonamido)-N-(1-hydroxypropan-2-yl)-N-methylbenzamide]: the AC50 worked out at 13 µM.

Turning to `Cc1cc(S(=O)(=O)Nc2cccc(-c3nccn3C)c2)c(C)cc1Cl` [Example 19, 4-chloro-2,5-dimethyl-N-(3-(1-methyl-1H-imidazol-2-yl)phenyl)benzenesulfonamide], half-maximal activity (AC50) was put at 3 µM.

`Cc1cc(S(=O)(=O)Nc2cccc(C(=O)N(C)C)c2)c(C)cc1Cl` [Example 12, 3-((4-chloro-2,5-dimethylphenyl)sulfonamido)-N,N-dimethylbenzamide]: the AC50 came out at 3 µM.

For `Cc1ccc(C)c(S(=O)(=O)Nc2cccc(C(=O)N3CCCCC3)c2)c1` [Example 3, 2,5-dimethyl-N-(3-(piperidine-1-carbonyl)phenyl)benzene sulfonamide], the AC50 is 28 µM. Compared with the last molecule, the AC50 is about 9.3-fold higher.

Consider `Cc1cnc(-c2ccc(Cl)c(NS(=O)(=O)c3cc(C)c(Cl)cc3C)c2)s1` [Example 102, 4-chloro-N-(2-chloro-5-(5-methylthiazol-2-yl)phenyl)-2,5-dimethylbenzenesulfonamide], for which the concentration at half-maximal activity (AC50) was over 100 µM.

Regarding `Cc1cc(S(=O)(=O)Nc2cccc(-c3ncc(C#N)s3)c2)c(C)cc1Cl` [Example 96, 4-chloro-N-(3-(5-cyanothiazol-2-yl)phenyl)-2,5-dimethylbenzenesulfonamide], the AC50 is over 100 µM.

The molecule `Cc1ccc(C)c(S(=O)(=O)Nc2cccc(C(=O)NCC3CC3)c2)c1` [Example 4, N-(cyclopropylmethyl)-3-((2,5-dimethylphenyl)sulfonamido)benzamide] registered an AC50 of 25 µM.

Molecule `Cc1ccc(C)c(S(=O)(=O)Nc2cccc(C(=O)N[C@@H](C)C3CC3)c2)c1` [Example 8, (S)-N-(1-cyclopropylethyl)-3-((2,5-dimethylphenyl)sulfonamido)benzamide] displayed an AC50 of 4 µM.

Turning to `Cc1cc(S(=O)(=O)Nc2cccc(C(=O)N3CCC[C@H]3C)c2)c(C)cc1Cl` [Example 10, (R)-4-chloro-2,5-dimethyl-N-(3-(2-methylpyrrolidine-1-carbonyl)phenyl)benzenesulfonamide], the AC50 turned out to be 1 µM.

On to `Cc1cnc(-c2cc(NS(=O)(=O)c3cc(C)c(Cl)cc3C)ccc2C)s1` [Example 103, 4-chloro-2,5-dimethyl-N-(4-methyl-3-(5-methylthiazol-2-yl)phenyl)benzenesulfonamide], for which the AC50 amounted to 58 µM.

For `Cc1cc(S(=O)(=O)Nc2cccc(C(=O)NCc3ccccc3)c2)c(C)cc1Cl` [Example 11, N-benzyl-3-((4-chloro-2,5-dimethylphenyl)sulfonamido)benzamide], the half-maximal activity concentration (AC50) was 6 µM.

For “(R)-2,5-dimethyl-N-(3-(3-methylmorpholine-4-carbonyl)phenyl)benzenesulfonamide [Example 1]”, the activity was half-maximal at 12 µM (AC50).

`Cc1ccc(C)c(S(=O)(=O)Nc2cccc(C(=O)N3CCCC[C@@H]3C)c2)c1` [Example 6, (S)-2,5-dimethyl-N-(3-(2-methylpiperidine-1-carbonyl)phenyl)benzenesulfonamide] returned an AC50 of 13 µM.
